IC50 data for 67 compounds are collected here from PubChem BioAssay AID789 (SRMLSC, 2007).

Experiment [1] deals with S. cerevisiae apl2Δ mutant growth inhibition. In words: growth inhibition of apl2Δ yeast, dose response, selectivity assay for post-Golgi transport modulator project, S. cerevisiae, secondary screen, background strain comparison (AID 789).
Assay in experiment [2]: as above
The conditions noted are these: S. cerevisiae background (wild-type parent) strain growth inhibition.

In general, IC50 refers to the concentration that inhibits the measured activity by half.

Calls of active or inactive are those of the source. No rule for the calls is given here.

Regarding `CCc1cc2c(=O)c(Oc3ccccc3F)c(C)oc2c(CN(C)C)c1O`, the IC50 was > 10 µM (inactive) in experiment [1] and over 10 µM in experiment [2].
For `CCSc1nnc(NC(=O)NCC(F)(F)F)s1`, the figures for the IC50 in experiment [1] and in experiment [2] were > 10 µM (inactive) and over 10 µM, respectively.
For `CC(C)OC(=O)CSc1nnc(-c2ccc(Cl)cc2)n1N`, in that order: > 10 µM (inactive) and over 10 µM.
For the compound `CCOC(=O)NC(Nc1ccc(S(N)(=O)=O)cc1)(C(=O)OCC)C(F)(F)F` (centres undefined), the values for the IC50 in experiment [1] and in experiment [2] were > 10 µM (inactive) and over 10 µM, respectively.
`Clc1ccc2[nH]c3c(NCC4CCCO4)ncnc3c2c1` (centres undefined): the IC50 was > 10 µM (inactive) in experiment [1] and over 10 µM in experiment [2].
On to `CC(C)c1ccc(C2C3CSCC=C3C(C#N)=C(N)C2(C#N)C#N)cc1` (centres undefined), for which the IC50 in experiment [1] was 1.84 µM (inactive); in experiment [2], 0.843 µM.
Turning to `Cc1cc(NCCCN2CCOCC2)n2ncc(-c3ccc(Cl)cc3)c2n1`, the IC50 in experiment [1] was > 10 µM (inactive); in experiment [2], over 10 µM.
For the compound `COc1ccc(-c2nnc(CSc3nc4ccccc4c(=O)n3C)o2)cc1OC`, the results for the IC50 in experiment [1] and in experiment [2] were > 10 µM (inactive) and over 10 µM, respectively.
For `N#CC1=C(N)NC(SCc2ccc(F)cc2)=C(C#N)C12CCCCC2` the same measures were 7.78 µM and 16.3 µM.
For `Cc1cc(=O)oc2c(CN3CCCCC3)c(O)c(Cl)cc12`, the IC50 in experiment [1] is > 10 µM (inactive); in experiment [2] it was over 10 µM.
Consider `ON=Cc1cccn1-c1ccccc1`, for which the IC50 in experiment [1] was > 10 µM (inactive); in experiment [2], over 10 µM.
As for `O=C(NC1CCN(Cc2ccccc2)CC1)C1COc2ccccc2O1` (centres undefined), the IC50 in experiment [1] is > 10 µM (inactive); in experiment [2], over 10 µM.
With `Clc1ccc(Cn2nnc(-c3ccc(CN4CCOCC4)cc3)n2)cc1`, the figures for the IC50 in experiment [1] and in experiment [2] were 18.9 µM and over 10 µM, respectively.
For `O=Cc1cc2ccccc2nc1SCc1ccc(Cl)cc1`, the values for the IC50 in experiment [1] and in experiment [2] were > 10 µM (inactive) and over 10 µM, respectively.
With `Cc1nn(Cc2cccc(C(=O)NC(C)c3ccc(C(C)(C)C)cc3)c2)c(C)c1[N+](=O)[O-]` (centres undefined), the results for the IC50 in experiment [1] and in experiment [2] were > 10 µM (inactive) and over 10 µM, respectively.
Take `CCCCCOc1ccc(Cl)cc1CN1CCOCC1`: the IC50 in experiment [1] is > 10 µM (inactive); in experiment [2] it was over 10 µM.
For `Cc1ccnc(N2C(=O)c3cccc4c([N+](=O)[O-])ccc(c34)C2=O)c1`, in that order: 7.94 µM (inactive) and 4.22 µM.
For `COc1cccc(C(=O)N2CCN(C3CCC(c4ccccc4)CC3)CC2)c1OC` (centres undefined) the same measures were 14.6 µM and 23.9 µM.
In the case of `Fc1ccc(-c2noc(C3CCN(Cc4cccnc4)CC3)n2)cc1`, the IC50 in experiment [1] is > 10 µM (inactive); in experiment [2], over 10 µM.
For `Cc1nc(NC(=O)c2ccccc2)sc1-c1csc(NCc2ccccc2)n1` the same measures were > 10 µM (inactive) and over 10 µM.
In the case of `Cc1ccc(C2(C(F)(F)F)N=C3Sc4cc(C)cc(C)c4N3C(=O)N2)cc1` (centres undefined), the IC50 in experiment [1] is 1.73 µM (inactive); in experiment [2], 1.08 µM.
Take `COc1ccc(C2CC(=O)C3=C(C2)NC(C)=C(C(=O)Nc2ccccc2C)C3c2coc3ccc(C)cc3c2=O)cc1OC` (centres undefined): the IC50 is > 10 µM (inactive) in experiment [1] and over 10 µM in experiment [2].
Regarding `Cc1cccc(-c2c3c(=O)n(C)c(=O)n(C)c3cn2C2CCCCC2)c1`, the IC50 in experiment [1] was > 10 µM (inactive); in experiment [2] it was over 10 µM.
Turning to `O=C(O)c1ccc(N2CCCCC2)cc1`, the IC50 in experiment [1] was > 10 µM (inactive); in experiment [2], over 10 µM.
Consider `Cc1ccc(N2CCN(S(=O)(=O)N3CCCCCC3)CC2)cc1Cl`, for which the IC50 in experiment [1] is > 10 µM (inactive); in experiment [2], over 10 µM.
With `O=C(Nc1cc(C(F)(F)F)ccc1-n1cncn1)c1ccc(-c2ccccc2)cc1`, the figures for the IC50 in experiment [1] and in experiment [2] were > 10 µM (inactive) and over 10 µM, respectively.
In the case of `Cc1ccc2nc(C)cc(OCC(=O)O)c2c1`, the IC50 is > 10 µM (inactive) in experiment [1] and over 10 µM in experiment [2].
For `CCOCCCNC(=O)C1CCN(C(=O)N(C)C)CC1`, the IC50 in experiment [1] is > 10 µM (inactive); in experiment [2], over 10 µM.
Turning to `Cc1cc(C)n2nc(C(=O)NCc3ccccc3)cc2n1`, the figures for the IC50 in experiment [1] and in experiment [2] were > 10 µM (inactive) and over 10 µM, respectively.
For the compound `COc1ccccc1N1CCN(Cc2ccccc2F)CC1`, the IC50 in experiment [1] is > 10 µM (inactive); in experiment [2], over 10 µM.
In the case of `O=C1OCC(CO)(CO)N=C1NNc1ccc(Cl)c(Cl)c1`, the results for the IC50 in experiment [1] and in experiment [2] were 4.53 µM (inactive) and 3.35 µM, respectively.
For the compound `O=C(COc1ccc(Cl)cc1Cl)NCCCN1CCOCC1`, the IC50 in experiment [1] was > 10 µM (inactive); in experiment [2], over 10 µM.
Take `OC(c1ccc(Cl)cc1Cl)C(Cc1cccnc1)n1cncn1` (centres undefined): the results for the IC50 in experiment [1] and in experiment [2] were > 10 µM (inactive) and over 10 µM, respectively.
`CCCC(=O)N1CCN(c2ccc(NC(=O)c3cc4ccccc4o3)cc2Cl)CC1`: the IC50 was 12.5 µM in experiment [1] and 19.2 µM in experiment [2].
In the case of `COC(=O)c1ccc(NC(=O)c2cn(-c3ccccc3)nc2-c2ccncc2)cc1`, the figures for the IC50 in experiment [1] and in experiment [2] were > 10 µM (inactive) and over 10 µM, respectively.
Turning to `Cc1ccc(-n2cc3c(-c4cccc(Br)c4)nnc(C)c3n2)cc1`, the IC50 in experiment [1] was 15.4 µM (inactive); in experiment [2], 13.5 µM.
With `COc1ccc2c(c1)C(C)=CC(C)(C)N2C(=O)CSc1nnc(-c2ccc(C)cc2)o1`, the IC50 in experiment [1] was > 10 µM (inactive); in experiment [2], over 10 µM.
Turning to `Nc1ccc(Oc2ccc3nc(-c4ccccc4)c(-c4ccccc4)nc3c2)cc1`, the results for the IC50 in experiment [1] and in experiment [2] were 2 µM (inactive) and 1.21 µM, respectively.
With `CCn1c(-c2c[nH]c3ccccc23)n[nH]c1=S`, the values for the IC50 in experiment [1] and in experiment [2] were > 10 µM (inactive) and over 10 µM, respectively.
For the compound `COc1ccc(/C=C2\SC(=S)N(NC(=O)c3csc4c3CCCC4)C2=O)cc1`, the IC50 in experiment [1] was > 10 µM (inactive); in experiment [2], over 10 µM.
For `COc1ccc(Nc2nc(N)nc(CSc3nnc(N)s3)n2)cc1` the same measures were > 10 µM (inactive) and over 10 µM.
On to `CSc1ncccc1C(=O)OCC(=O)N1CCOCC1`, for which the IC50 is > 10 µM (inactive) in experiment [1] and over 10 µM in experiment [2].
Consider `COc1cccc(OCCCCN2CC(C)OC(C)C2)c1` (centres undefined), for which the values for the IC50 in experiment [1] and in experiment [2] were > 10 µM (inactive) and over 10 µM, respectively.
For `CCc1ccc(N(C(=O)c2csnn2)C(C(=O)NC(C)(C)C)c2ccncc2)cc1` (centres undefined), in that order: > 10 µM (inactive) and over 10 µM.
Take `COCCCn1c2nc3ccccc3nc2c2c(=O)n(-c3ccccc3OC)cnc21`: the IC50 in experiment [1] is > 10 µM (inactive); in experiment [2] it was over 10 µM.
In the case of `O=C(NCc1ccc2c(c1)OCO2)C1CCCN1C(=O)Nc1ccccc1` (centres undefined), the IC50 in experiment [1] was > 10 µM (inactive); in experiment [2], over 10 µM.
For the compound `CCOc1cc(/C=C\[N+](=O)[O-])ccc1OCC(=O)Nc1ccccc1C`, the IC50 is > 10 µM (inactive) in experiment [1] and over 10 µM in experiment [2].
For `c1ccc(COc2ccc(CN3CCN(c4ccccn4)CC3)cc2)cc1` the same measures were > 10 µM (inactive) and over 10 µM.
As to `O=S(=O)(c1ccc(Cl)cc1)N1CCN(C2CCN(Cc3ccccc3)CC2)CC1`, the figures for the IC50 in experiment [1] and in experiment [2] were > 10 µM (inactive) and over 10 µM, respectively.
For `CC1CC(C)CN(CCOc2ccc(Cl)cc2Cl)C1` (centres undefined) the same measures were > 10 µM (inactive) and over 10 µM.
Take `NC(=O)c1ccsc1NC(=O)c1nc(-c2ccccc2)n(-c2ccccc2)n1`: the IC50 in experiment [1] is > 10 µM (inactive); in experiment [2] it was over 10 µM.
As to `CC1CN(CC(O)COc2ccc(C(C)C)cc2)CC(C)O1` (centres undefined), the figures for the IC50 in experiment [1] and in experiment [2] were > 10 µM (inactive) and over 10 µM, respectively.
For the compound `Nc1cc(N)c(OCC(F)(F)F)cc1OCC(F)(F)F`, the IC50 in experiment [1] is > 10 µM (inactive); in experiment [2] it was over 10 µM.
Turning to `O=C(NCC(c1cccnc1)N1CCN(c2ccccc2)CC1)C1CCCCC1` (centres undefined), the IC50 in experiment [1] is > 10 µM (inactive); in experiment [2] it was over 10 µM.
For `O=C1CC(N2CCN(c3ccc(Cl)c(Cl)c3)CC2)C(=O)N1` (centres undefined) the same measures were > 10 µM (inactive) and over 10 µM.
Turning to `Nc1c(C(=O)OCC2CCCO2)c2nc3ccccc3nc2n1-c1ccc2c(c1)OCCO2` (centres undefined), the IC50 is > 10 µM (inactive) in experiment [1] and over 10 µM in experiment [2].
`O=C(O)c1cc(-c2ccc(/C=N/Nc3ccc(Cl)cc3)o2)ccc1Cl`: the IC50 in experiment [1] was 15.5 µM; in experiment [2], 16.4 µM.
For `Cc1cccc(CS(=O)(=O)Cc2ccc(C(=O)NCCCN3CCCC3)o2)c1`, in that order: > 10 µM (inactive) and over 10 µM.
For `O=C(COc1ccc(Cl)cc1)Nc1ccc(N2CCN(C(=O)c3ccco3)CC2)cc1`, in that order: > 10 µM (inactive) and over 10 µM.
Consider `CCOC(=O)COc1ccccc1C1Nc2ccccc2C(=O)N1c1cccc(Cl)c1` (centres undefined), for which the IC50 in experiment [1] was > 10 µM (inactive); in experiment [2], over 10 µM.
For `CCCn1c(SCc2cc(=O)oc3ccc4ccccc4c23)n[nH]c1=O`, in that order: > 10 µM (inactive) and over 10 µM.
For `O=[N+]([O-])c1ccc(N2CCN(S(=O)(=O)c3ccc(Cl)cc3)CC2)cc1NCc1cccnc1` the same measures were > 10 µM (inactive) and over 10 µM.
Take `Cc1c(C)c2cc(Cl)c(O)c(CN3CCN(C)CC3)c2oc1=O`: the IC50 in experiment [1] is > 10 µM (inactive); in experiment [2], over 10 µM.
`CC(=O)c1cnc2nc(C)nn2c1C`: the IC50 in experiment [1] is > 10 µM (inactive); in experiment [2], over 10 µM.
Regarding `Cc1nc(NC(=O)c2ccccc2)sc1-c1csc(Nc2ccc(F)cc2)n1`, the values for the IC50 in experiment [1] and in experiment [2] were > 10 µM (inactive) and over 10 µM, respectively.
For `O=C(NCCc1ccccc1)C1CCN(S(=O)(=O)N2CCCC2)CC1`, in that order: > 10 µM (inactive) and over 10 µM.
As to `CCOC(=O)C1=C(CSc2nc(-c3ccccc3)ccc2C#N)OC(N)=C(C#N)C1c1cccnc1` (centres undefined), the IC50 in experiment [1] is > 10 µM (inactive); in experiment [2] it was over 10 µM.
